Data taken from patent US4232040A, “Compositions for and a method of preventing diabetic complications” (Syntex (U.S.A.) Inc., priority 1978, dated 1980).

Legend:
[1] = molecular target: T1, Aldose reductase (Oryctolagus cuniculus, UniProt P15122); assay: Aldose reductase inhibition in vitro (rabbit lens enzyme, glyceraldehyde substrate, loss of absorbance at 340 millimicrons); type: biochemical, New Zealand rabbit; conditions: 2 min, Table I, relative to non-inhibited control (0%); for inhibition at 100 µM: molar concentration of xanthone compound 1 × 10^-4; for inhibition at 10 µM: molar concentration of xanthone compound 1 × 10^-5; for inhibition at 1 µM: molar concentration of xanthone compound 1 × 10^-6
T1 construct: Aldose reductase is isolated by homogenizing the lens in 3 volumes of water; from tissue; host or cells: lens of mature New Zealand rabbits
Experimental: In brief, a solution of the enzyme is added to an appropriately buffered solution containing glyceraldehyde. The loss of ultra violet absorbance at 340 millimicrons is indicative of the rate of reaction of the aldehyde with the enzyme as previously reported by Hayman and Kinoshita, (J. Biol. Chem: 240, 877, (1965)).
Fifty lenses are obtained from mature, New Zealand, rabbits and are immediately frozen on dry ice. Aldose reductase is isolated by homogenizing the lens in 3 volumes of water for 30 seconds in a Waring blender followed by centrifugation at 10,000 xg for 15 minutes to remove insoluble material. Saturated ammonium sulfate is added to the supernatant fluid to 40% saturation. The suspension is centrifuged after 15 minutes, and the supernatant liquid recovered. Additional protein is removed by increasing the ammonium sulfate concentration to 50%, and centrifuging the mixture. Aldose reductase is precipitated from the 50% saturated solution by the addition of powdered ammonium sulfate to 75% saturation and is recovered by centrifugation. The precipitated enzyme is assayed by following the ultraviolet absorbance at 340 millimicrons after dissolving the enzyme in 0.05 M sodium chloride. The enzyme (0.50 ml) is added to a quartz cuvette containing phosphate buffer (0.067 M, pH 6.0), NADPH (2×10^-5 M), and water to a final volume of 3 ml and the cuvette inserted in a conventional ultra-violet spectrometer. The reaction is started by the addition of substrate (glyceraldehyde) to the contents of the cuvette and is followed by the determination of loss of absorbance at 340 millimicrons for 2 minutes at 37° C. The reaction rate observed is usually linear for at least 5 minutes.
All results are shown in Tables I, II, and III as % inhibition, i.e. based on a non-inhibited control sample, no inhibition, 0%.

[2] = system: lens aldose reductase; conditions: in vitro studies; cited from earlier work

Row | SMILES | inhibition at 100 µM [1] [%] | inhibition at 10 µM [1] [%] | inhibition at 1 µM [1] [%] | inhibition of lens aldose reductase [2]
1 | CN(C)S(=O)(=O)c1ccc2oc3ccc(C(=O)N(CCO)CCO)cc3c(=O)c2c1 | 86 | 64 | 29 | –
2 | C[C@@H]1O[C@@H](Oc2c(-c3cc(O)c(O)c(O)c3)oc3cc(O)cc(O)c3c2=O)[C@H](O)[C@H](O)[C@H]1O [myrecetrin] | – | – | – | among the most potent
3 | O=c1c(O)c(-c2ccc(O)c(O)c2)oc2cc(O)cc(O)c12 [quercetin] | – | – | – | among the most potent
4 | C[C@@H]1O[C@@H](Oc2c(-c3ccc(O)c(O)c3)oc3cc(O)cc(O)c3c2=O)[C@H](O)[C@H](O)[C@H]1O [quercetrin] | – | – | – | among the most potent

Second part, led by results:

Row | inhibition at 100 µM [1] [%] | inhibition at 10 µM [1] [%] | inhibition at 1 µM [1] [%] | SMILES | inhibition of lens aldose reductase [2]
5 | 94 | 87 | 67 | CN(C)S(=O)(=O)c1ccc2oc3ccc(C(=O)O)cc3c(=O)c2c1 | –
6 | 95 | 75 | 25 | CC(C)CN(C)S(=O)(=O)c1ccc2oc3ccc(C(=O)O)cc3c(=O)c2c1 | –
7 | – | – | 0 | O=C(O)c1ccc2oc3ccc(S(=O)(=O)O)cc3c(=O)c2c1 [H 3 H] | –
